Data as given in ChEMBL document CHEMBL1136320, “Substrate properties of C5-substituted pyrimidine 2'-deoxynucleoside 5'-triphosphates for thermostable DNA polymerases during PCR” (Bioorg Med Chem Lett, 2003).

Tests used:
[1] = system: Nucleic Acid; test: Amount of full-length DNA product formed using polymerase B Vent (exo); range is 35-70%; assay type: nucleic-acid assay
[2] = system: Nucleic Acid; test: Amount of full-length DNA product formed using polymerase B Pwo; range is 35-70%; assay type: nucleic-acid assay
[3] = system: Nucleic Acid; test: Amount of full-length DNA product formed using Taq polymerase; No product detected; assay type: functional
[4] = system: Nucleic Acid; test: Amount of full-length DNA product formed using polymerase A Tth; No product detected; assay type: nucleic-acid assay
[5] = system: Nucleic Acid; test: Amount of full-length DNA product formed using polymerase A Thermo Sequenase; No product detected; assay type: nucleic-acid assay
[6] = system: Nucleic Acid; test: Amount of full-length DNA product formed using polymerase B Pfu; assay type: nucleic-acid assay
[7] = system: Nucleic Acid; test: Amount of full-length DNA product formed using polymerase B Deep vent (exo); assay type: nucleic-acid assay
[8] = system: Nucleic Acid; test: Amount of full-length DNA product formed using polymerase B Pwo; assay type: nucleic-acid assay
[9] = system: Nucleic Acid; test: Amount of full-length DNA product formed using polymerase B Deep vent (exo); No product detected; assay type: nucleic-acid assay
[10] = system: Nucleic Acid; test: Amount of full-length DNA product formed using polymerase B Pfu; No product detected; assay type: nucleic-acid assay
[11] = system: Nucleic Acid; test: Amount of full-length DNA product formed using polymerase B Vent (exo); No product detected; assay type: nucleic-acid assay
[12] = system: Nucleic Acid; test: Amount of full-length DNA product formed using polymerase B Pwo; No product detected; assay type: nucleic-acid assay

Activity [1] [%]	Activity [2] [%]	Activity [3]	Activity [4]	Activity [5]	Activity [6] [%]	Activity [7] [%]	Activity [8] [%]	Activity [9]	Activity [10]	Activity [11]	Activity [12]	Structure (SMILES)
35	35	Not detected	Not detected	Not detected	< 35	< 35	–	–	–	–	–	NCCOCCOCc1cn(C2CC(O)C(COP(=O)(O)OP(=O)(O)OP(=O)(O)O)O2)c(=O)nc1N (stereo unspecified)
35	–	Not detected	Not detected	Not detected	< 35	< 35	< 35	–	–	–	–	NCCOCCOCc1cn(C2CC(O)C(COP(=O)(O)OP(=O)(O)OP(=O)(O)O)O2)c(=O)[nH]c1=O (stereo unspecified)
–	–	Not detected	Not detected	Not detected	–	–	–	Not detected	Not detected	Not detected	Not detected	CC#Cc1cn(C2CC(O)C(COP(=O)(O)OP(=O)(O)OP(=O)(O)O)O2)c(=O)nc1N (stereo unspecified)
